Assay: Chemical stability in temperature and humidity-controlled chamber (Example 2)
Format: physicochemical
Set-up: key to Appearance: U: unchanged
Protocol: Chemical stability was assessed for two different samples of 5-[(Z)-(5-fluoro-2-oxo-1,2-dihydro-3H-indol-3-ylidene)methyl]-N-[(2S)-2-hydroxy-3-morpholin-4-ylpropyl]-2,4-dimethyl-1H-pyrrole-3-carboxamide maleate salt, polymorph Form 1. Samples were maintained in a temperature and humidity-controlled chamber at 25° C. and 60% relative humidity (Tables 7 and 8) or at 40° C. and 75% relative humidity (Tables 9 and 10). At various time intervals, material was removed and tested for maleate counterion assay, impurities, water content and enantiomeric purity.
The maleate counterion assay was determined by ion exchange chromatography (IEC).
A suitable amount of the maleate salt is dissolved in water (Milli Q grade) and analyzed by IEC, and compared to calibration samples. Under these conditions, the peak due to maleic acid has a retention time of about 11 minutes. The amount of maleic acid in the sample is calculated as: % Assay=(Cs/W)×100 where Cs is the concentration of maleic acid found in the sample, and W is the theoretical sample concentration in the aqueous solution.
The amounts of impurities and degradation products were determined by HPLC, using a Perkin Elmer LC 200 system with a diode array detector. The analytical column was a Waters Xterra RP18, 5 μm, 250×4.6 mm, and the guard column was a Waters Xterra RP18, 5 μm, 20×3.9 mm. Mobile phase A was a mixture of 90% 0.05 M ammonium acetate buffer at pH 5.5 and 10% acetonitrile. Mobile phase B was a mixture of 10% 0.05 M ammonium acetate buffer at pH 5.5 and 90% acetonitrile.
Flow rate was 1 mL/min, injection volume 30 μL, room temperature, 435 nm detection. Under these conditions, the peak due to the maleate salt has a retention time of about 24 minutes. Impurities are characterized by their relative retention time (RRT). The impurity at RRT=0.26 is the E isomer. The other impurities were not characterized.
Enantiomeric purity was determined by HPLC, using a Chiralpak AD analytical column, 10 μm, 250×4.6 mm (Daicel Chemical Industries, Ltd.) using an oven temperature of 30° C., a mobile phase of 2-propanol/heptane/diethylamine (50/50/0.1), an isocratic elution mode, a flow rate of 0.5 mL/min, injection volume of 50 μL, detector wavelength of 265 nm, dilution solvent 2-propanol/heptane (50/50) and a sample concentration of 0.3 mg/mL. Under these conditions, the S isomer has a retention time of about 15.5 minutes, and the R isomer has a retention time of about 22 minutes.
Water content was determined according to USP 25, <921>, Method Ic.

[1] = 25° C. and 60% Relative Humidity, 1 mo.
[2] = 25° C. and 60% Relative Humidity, 3 mo.
[3] = 25° C. and 60% Relative Humidity, 6 mo.
[4] = 25° C. and 60% Relative Humidity, Initial
[5] = 40° C. and 75% Relative Humidity, 1 mo.
[6] = 40° C. and 75% Relative Humidity, 3 mo.
[7] = 40° C. and 75% Relative Humidity, 6 mo.
[8] = 40° C. and 75% Relative Humidity, Initial

## Cc1[nH]c(/C=C2\C(=O)Nc3ccc(F)cc32)c(C)c1C(=O)NC[C@H](O)CN1CCOCC1 [Sample B, 5-[(Z)-(5-fluoro-2-oxo-1,2-dihydro-3H-indol-3-ylidene)methyl]-N-[(2S)-2-hydroxy-3-morpholin-4-ylpropyl]-2,4-dimethyl-1H-pyrrole-3-carboxamide]
[1]
  Appearance: U^a
  Assay (% free base equivalent): 98.2 % free base equivalent
  Impurities (%) RRT 0.26: 0.06%
  Impurities (%) RRT 0.51: 0.62%
  Impurities (%) RRT 0.71: 0.09%
  Impurities (%) RRT 1.53: 0.09%
  Impurities (%) RRT 1.74: 0.06%
  Impurities (%) RRT 1.84: 0.08%
  Total Impurities (%): 1.00%
  Water Content (%): 0.50%
[2]
  Appearance: U^a
  Assay (% free base equivalent): 98.2 % free base equivalent
  Impurities (%) RRT 0.26: 0.18%
  Impurities (%) RRT 0.51: 0.61%
  Impurities (%) RRT 0.71: 0.09%
  Impurities (%) RRT 1.53: 0.08%
  Impurities (%) RRT 1.74: 0.05%
  Impurities (%) RRT 1.84: 0.09%
  Total Impurities (%): 1.10%
  Water Content (%): 0.54%
[3]
  Appearance: U^a
  Assay (% free base equivalent): 97.7 % free base equivalent
  Impurities (%) RRT 0.26: 0.05%
  Impurities (%) RRT 0.51: 0.56%
  Impurities (%) RRT 0.71: 0.05%
  Impurities (%) RRT 1.53: 0.08%
  Impurities (%) RRT 1.74: 0.06%
  Impurities (%) RRT 1.84: 0.09%
  Total Impurities (%): 0.90%
  Water Content (%): 0.47%
[4]
  Assay (% free base equivalent): 97.8 % free base equivalent
  Enantiomeric Purity (%): >99.90%
  Impurities (%) RRT 0.26: 0.21%
  Impurities (%) RRT 0.51: 0.68%
  Impurities (%) RRT 0.71: 0.07%
  Impurities (%) RRT 1.53: 0.11%
  Impurities (%) RRT 1.74: 0.07%
  Impurities (%) RRT 1.84: 0.10%
  Total Impurities (%): 1.24%
  Water Content (%): 0.45%
[5]
  Appearance: U^a
  Assay (% free base equivalent): 98.2 % free base equivalent
  Impurities (%) RRT 0.26: 0.13%
  Impurities (%) RRT 0.51: 0.61%
  Impurities (%) RRT 0.71: 0.08%
  Impurities (%) RRT 1.53: 0.10%
  Impurities (%) RRT 1.74: 0.06%
  Impurities (%) RRT 1.84: 0.08%
  Total Impurities (%): 1.06%
  Water Content (%): 0.49%
[6]
  Appearance: U^a
  Assay (% free base equivalent): 97.2 % free base equivalent
  Impurities (%) RRT 0.26: 0.18%
  Impurities (%) RRT 0.51: 0.58%
  Impurities (%) RRT 0.71: 0.08%
  Impurities (%) RRT 1.53: 0.09%
  Impurities (%) RRT 1.74: 0.05%
  Impurities (%) RRT 1.84: 0.09%
  Total Impurities (%): 1.06%
  Water Content (%): 0.49%
[7]
  Appearance: U^a
  Assay (% free base equivalent): 97.5 % free base equivalent
  Enantiomeric Purity (%): >99.9%
  Impurities (%) RRT 0.26: 0.05%
  Impurities (%) RRT 0.51: 0.54%
  Impurities (%) RRT 1.53: 0.10%
  Impurities (%) RRT 1.74: 0.05%
  Impurities (%) RRT 1.84: 0.09%
  Total Impurities (%): 0.83%
  Water Content (%): 0.47%
[8]
  Assay (% free base equivalent): 97.8 % free base equivalent
  Enantiomeric Purity (%): >99.95%
  Impurities (%) RRT 0.26: 0.21%
  Impurities (%) RRT 0.51: 0.68%
  Impurities (%) RRT 0.71: 0.07%
  Impurities (%) RRT 1.53: 0.11%
  Impurities (%) RRT 1.74: 0.07%
  Impurities (%) RRT 1.84: 0.10%
  Total Impurities (%): 1.24%
  Water Content (%): 0.45%

Source: patent publication US7247627B2, “Salts and polymorphs of a pyrrole-substituted indolinone compound” (Pharmacia & Upjohn Company, priority 2003, dated 2007)
